Among the data in patent EP0547317A1, “Endothelin antagonists” (TAKEDA CHEMICAL INDUSTRIES, LTD., priority 1991, dated 1993) are pA₂ and Relative potency values, retold here.

The experiment deals with porcine coronary smooth muscles. The experiment in a line: Assay of constrictor suppressing activity on porcine coronary smooth muscles (antagonism of endothelin-1 constriction). It counts as cell-based. As to conditions: for pA₂: antagonistic activity on constriction by endothelin-1 given cumulatively about 15 minutes after the compound, negative logarithm of molar concentration of antagonist shifting the dose response curve by a factor of 2; for Relative potency: antagonistic activity on the constriction of porcine coronary smooth muscles, Example 1 = 100. The protocol:
• (1) Assay of Constrictor Suppressing Activity on Porcine Coronary Smooth Muscles Spiral strips 2 mm x 15 mm prepared from the coronary right ramus circumflexus from which the adventitial connective tissues and the endothelial cells were removed were set to 4 ml organ baths. The tension of each strip was detected by a force displacement transducer UL-10GR (Minebea), and recorded by a polygraph (NEC Sanei). The organ baths were maintained at 37°C, and filled with a Krebs-Henseleit solution (composition: 118 mM NaCl, 4.7 mM KCl, 2.5 mM CaCl₂, 1.2 mM KH₂PO₄, 25.0 mM NaHCO₃, 1.2 mM MgSO₄, 10.0 mM glucose) gassed with 95% O₂ and 5% CO₂. A tension of 1.25 to 1.5 g was applied to each of the strips, followed by equilibration for 1.5 hours. 60 mM KCl was repeatedly applied thereto at intervals of 30 minutes until the constriction response became constant. After additional equilibration for 1.5 hours, a sample for assay was given thereto. The constriction of the strips was normalized by the constriction response of the individual strips to 60 mM KCl and statistically processed. The suppressing activity was determined as a pA₂ value by giving endothelin-1 cumulatively about 15 minutes after the compound having a predetermined concentration was given, and comparing the constriction thereof with that of a control sample in which only endothelin-1 was given. […] Such a case has not been reported yet. […] The affinity for the receptor was assayed by the following method.

Bridge positions count the residues as written; N and C are the ends. Peptide text beside a SMILES is read from it.

Turning to `CC[C@H](C)[C@H](NC(=O)[C@H](CC(C)C)NC(=O)[C@@H](NC(=O)[C@H](CC(C)C)NC(=O)[C@H](Cc1c[nH]cn1)NC(=O)[C@@H]1CSSC[C@H](N)C(=O)N[C@@H](C)C(=O)N[C@H]2CSSC[C@H](NC(=O)[C@H](CCC(=O)O)NC(=O)[C@H](CCCCN)NC(=O)[C@H](CC(=O)O)NC(=O)[C@H](CCSC)NC(=O)[C@H](CC(C)C)NC(=O)[C@H](CO)NC(=O)[C@H](CO)NC2=O)C(=O)N[C@@H](C(C)C)C(=O)N[C@@H](Cc2ccc(O)cc2)C(=O)N[C@@H](Cc2ccccc2)C(=O)N1)[C@@H](C)O)C(=O)N[C@@H](Cc1c[nH]c2ccccc12)C(=O)O` [Example 12, [Ala², Thr¹⁸, Leu¹⁹]-ET-1] (H-CACSSLMDKECVYFCHLTLIW-OH; disulfide 1-15, 3-11), the pA₂ is listed as 6.7 and the Relative potency was 10.
The corresponding values for `CC[C@H](C)[C@H](NC(=O)[C@H](CC(C)C)NC(=O)[C@@H](NC(=O)[C@H](CC(C)C)NC(=O)[C@H](Cc1c[nH]cn1)NC(=O)[C@@H]1CSSC[C@H](N)C(=O)N[C@@H](CO)C(=O)N[C@H]2CSSC[C@H](NC(=O)[C@H](CCC(=O)O)NC(=O)[C@H](CCCCN)NC(=O)[C@H](CC(=O)O)NC(=O)[C@H](CCSC)NC(=O)[C@H](CC(C)C)NC(=O)[C@H](CO)NC(=O)[C@H](C)NC2=O)C(=O)N[C@@H](C(C)C)C(=O)N[C@@H](Cc2ccc(O)cc2)C(=O)N[C@@H](Cc2ccccc2)C(=O)N1)[C@@H](C)O)C(=O)N[C@@H](Cc1c[nH]c2ccccc12)C(=O)O` [Example 13, [Ala⁴, Thr¹⁸, Leu¹⁹]-ET-1] (H-CSCASLMDKECVYFCHLTLIW-OH; disulfide 1-15, 3-11) are 6.9 and 16.
The corresponding values for `CC[C@H](C)[C@H](NC(=O)[C@H](CC(C)C)NC(=O)[C@@H](NC(=O)[C@H](CC(C)C)NC(=O)[C@H](Cc1c[nH]cn1)NC(=O)[C@@H]1CSSC[C@H](N)C(=O)N[C@@H](CO)C(=O)N[C@H]2CSSC[C@H](NC(=O)[C@H](CCC(=O)O)NC(=O)[C@H](CCCCN)NC(=O)[C@H](CC(=O)O)NC(=O)[C@H](CCSC)NC(=O)[C@H](CC(C)C)NC(=O)[C@H](C)NC(=O)[C@H](CO)NC2=O)C(=O)N[C@@H](C(C)C)C(=O)N[C@@H](Cc2ccc(O)cc2)C(=O)N[C@@H](Cc2ccccc2)C(=O)N1)[C@@H](C)O)C(=O)N[C@@H](Cc1c[nH]c2ccccc12)C(=O)O` [Example 14, [Ala⁵, Thr¹⁸, Leu¹⁹]-ET-1] (H-CSCSALMDKECVYFCHLTLIW-OH; disulfide 1-15, 3-11) are 5.5 and 0.6.
The corresponding values for `CC[C@H](C)[C@H](NC(=O)[C@H](CC(C)C)NC(=O)[C@@H](NC(=O)[C@H](CC(C)C)NC(=O)[C@H](Cc1c[nH]cn1)NC(=O)[C@@H]1CSSC[C@H](N)C(=O)N[C@@H](CO)C(=O)N[C@H]2CSSC[C@H](NC(=O)[C@H](CCC(=O)O)NC(=O)[C@H](CCCCN)NC(=O)[C@H](CC(=O)O)NC(=O)[C@H](CCSC)NC(=O)[C@H](C)NC(=O)[C@H](CO)NC(=O)[C@H](CO)NC2=O)C(=O)N[C@@H](C(C)C)C(=O)N[C@@H](Cc2ccc(O)cc2)C(=O)N[C@@H](Cc2ccccc2)C(=O)N1)[C@@H](C)O)C(=O)N[C@@H](Cc1c[nH]c2ccccc12)C(=O)O` [Example 15, [Ala⁶, Thr¹⁸, Leu¹⁹]-ET-1] (H-CSCSSAMDKECVYFCHLTLIW-OH; disulfide 1-15, 3-11) are 6.5 and 6.
Turning to `CC[C@H](C)[C@H](NC(=O)[C@H](CC(C)C)NC(=O)[C@@H](NC(=O)[C@H](CC(C)C)NC(=O)[C@H](Cc1c[nH]cn1)NC(=O)[C@@H]1CSSC[C@H](N)C(=O)N[C@@H](CO)C(=O)N[C@H]2CSSC[C@H](NC(=O)[C@H](CCC(=O)O)NC(=O)[C@H](CCCCN)NC(=O)[C@H](CC(=O)O)NC(=O)[C@H](C)NC(=O)[C@H](CC(C)C)NC(=O)[C@H](CO)NC(=O)[C@H](CO)NC2=O)C(=O)N[C@@H](C(C)C)C(=O)N[C@@H](Cc2ccc(O)cc2)C(=O)N[C@@H](Cc2ccccc2)C(=O)N1)[C@@H](C)O)C(=O)N[C@@H](Cc1c[nH]c2ccccc12)C(=O)O` [Example 16, [Ala⁷, Thr¹⁸, Leu¹⁹]-ET-1] (H-CSCSSLADKECVYFCHLTLIW-OH; disulfide 1-15, 3-11), the pA₂ was determined as 7.2 and the Relative potency was found to be 32.
